# Legend:
# Mycolicibacter terrae = experiment: Antimycobacterial activity against Mycobacterium terrae after […] by microbroth dilution method; format: functional
# [1] = system: Mycobacterium tuberculosis; experiment: Antimycobacterial activity against Mycobacterium tuberculosis H37Rv after […] by microbroth dilution method; format: functional
# Mycobacterium avium = experiment: Antimycobacterial activity against Mycobacterium avium after […] by microbroth dilution method; format: functional
# [2] = Acute toxicity in po dosed mouse administered as single dose measured after 14 days; format: organism-based; conditions: in vivo
# [3] = Acute toxicity in po dosed mouse; format: organism-based; conditions: in vivo
Compound,MIC (Mycolicibacter terrae),MIC [1],MIC (Mycobacterium avium),LD50 at 336 h [2],LD50 [3]
c1ccc(-c2cncnc2)cc1,80 µM,80 µM,80 µM,–,–
Fc1ccccc1-c1cncnc1,71.8 µM,71.8 µM,71.8 µM,–,–
Fc1cc(F)cc(-c2cncnc2-c2cccs2)c1,45.6 µM,45.6 µM,45.6 µM,–,–
Fc1ccc(-c2cncnc2-c2ccco2)cc1,52 µM,52 µM,52 µM,–,–
Fc1ccc(-c2cncnc2)cc1,71.8 µM,71.8 µM,71.8 µM,–,–
FC(F)(F)c1cc(-c2cncnc2-c2cccs2)cc(C(F)(F)F)c1,33.4 µM,33.4 µM,33.4 µM,–,–
Fc1ccc(-c2cncnc2-c2cccs2)cc1,12.5 µM,48.8 µM,12.5 µM,–,–
Fc1cccc(-c2cncnc2-c2cccs2)c1,12.5 µM,48.8 µM,12.5 µM,–,–
FC(F)(F)c1cccc(-c2cncnc2-c2cccs2)c1,4.9 µM,4.9 µM,4.9 µM,–,–
c1ccc(-c2cncnc2-c2ccco2)cc1,1.57 µM,1.57 µM,1.57 µM,150 mg/kg,–
c1ccc(-c2cncnc2-c2cccs2)cc1,26 µM,26 µM,26 µM,–,–
Fc1ccc(-c2cncnc2-c2cccs2)c(F)c1,45.6 µM,45.6 µM,45.6 µM,–,–
Fc1cccc(-c2cncnc2-c2ccco2)c1,6.24 µM,6.24 µM,6.24 µM,–,–
Fc1cc(F)cc(-c2cncnc2-c2ccco2)c1,24 µM,24 µM,24 µM,–,–
FC(F)(F)c1ccccc1-c1cncnc1,27.7 µM,27.7 µM,27.7 µM,–,–
FC(F)(F)c1ccc(-c2cncnc2)cc1,55.8 µM,55.8 µM,55.8 µM,–,–
FC(F)(F)c1ccccc1-c1cncnc1-c1cccs1,20.2 µM,20.2 µM,20.2 µM,–,–
FC(F)(F)c1ccc(-c2cncnc2)c(C(F)(F)F)c1,42.8 µM,42.8 µM,42.8 µM,–,–

Compound,MIC (Mycolicibacter terrae),MIC [1],MIC (Mycobacterium avium),LD50 at 336 h [2],LD50 [3]
Fc1ccc(-c2cncnc2)c(F)c1,16.1 µM,16.1 µM,16.1 µM,–,–
FC(F)(F)c1ccc(-c2cncnc2-c2ccco2)cc1,43.1 µM,43.1 µM,43.1 µM,–,–
FC(F)(F)c1ccc(-c2cncnc2-c2ccco2)c(C(F)(F)F)c1,0.98 µM,1.95 µM,1.95 µM,600 mg/kg,–
Fc1cccc(-c2cncnc2)c1,35.9 µM,35.9 µM,35.9 µM,–,–
Fc1cc(F)cc(-c2cncnc2)c1,3.64 µM,3.64 µM,3.64 µM,300 mg/kg,–
Fc1ccccc1-c1cncnc1-c1cccs1,12.5 µM,48.8 µM,12.5 µM,–,–
FC(F)(F)c1ccc(-c2cncnc2-c2cccs2)cc1,40.8 µM,40.8 µM,40.8 µM,–,–
Fc1ccc(-c2cncnc2-c2ccco2)c(F)c1,48.4 µM,48.4 µM,48.4 µM,–,–
Fc1ccccc1-c1cncnc1-c1ccco1,52 µM,52 µM,52 µM,–,–
FC(F)(F)c1cccc(-c2cncnc2-c2ccco2)c1,43.1 µM,43.1 µM,43.1 µM,–,–
FC(F)(F)c1ccc(-c2cncnc2-c2cccs2)c(C(F)(F)F)c1,16.6 µM,16.6 µM,16.6 µM,–,–
FC(F)(F)c1ccccc1-c1cncnc1-c1ccco1,43.1 µM,43.1 µM,43.1 µM,–,–
FC(F)(F)c1cccc(-c2cncnc2)c1,55.8 µM,55.8 µM,55.8 µM,–,–
FC(F)(F)c1cc(-c2cncnc2-c2ccco2)cc(C(F)(F)F)c1,8.65 µM,8.65 µM,8.65 µM,–,–
FC(F)(F)c1cc(-c2cncnc2)cc(C(F)(F)F)c1,5.13 µM,5.13 µM,5.13 µM,–,–
NNC(=O)c1ccncc1 [ISONIAZID],0.73 µM,0.73 µM,0.73 µM,–,–
CC1COc2c(N3CCN(C)CC3)c(F)cc3c(=O)c(C(=O)O)cn1c23 (stereo not given) [OFLOXACIN],0.28 µM,0.28 µM,0.28 µM,–,5450 mg/kg
NC(=O)c1cnccn1 [PYRAZINAMIDE],–,102 µM,–,–,–

# — ChEMBL document CHEMBL3817833, “Synthesis and evaluation of antitubercular activity of fluorinated 5-aryl-4-(hetero)aryl substituted pyrimidines” (Bioorg Med Chem, 2016)
